Results from patent US20080096832A1, “Method for Improving the Pharmacokinetics of an NNRTI” (Boehringer Ingelheim International GmbH, priority 2002, published 2008).
Read-outs that look alike come from different tables or passages of the source.

Assays:
[1] = target: CYP3A4 (Homo sapiens, UniProt P08684); experiment: Metabolism of the compound of the formula I by the cytochromes P450; type: in vitro ADME; settings: result in words
[2] = Pharmacokinetic drug-drug interaction of the compound of the formula I and ritonavir in healthy volunteers (single dose, alone and with RTV); type: in vivo, human; design: CL/F: unit not given here; settings: for AUC(0-t) / Cmax / Tmax / half-life / AUC: human, plasma
Experimental: A single-dose, single treatment group was studied to assess the pharmacokinetic drug-drug interaction potential between the protease inhibitors the compound of the formula I and ritonavir. The compound of the formula I was administered as a solution containing 5 or 12.5 mg of the compound of the formula I, with excipients, and ritonavir was administered as the 100-mg marketed product (Norvir) 12 hours preceding and co-administration with the compound of the formula I . Baseline pharmacokinetic data for the compound of the formula I was obtained as single doses up through 100 mg. The co-administered drugs were compared with baseline data. The study was conducted in healthy volunteers Pharmacokinetic analyses were based on the results obtained in these subjects. Pharmacokinetic parameters such as AUC, Cmax, tmax, oral clearance, and terminal half-life were determined using standard noncompartmental techniques.

[3] = 12.5 mg oral single dose alone, mean
[4] = 25 mg oral single dose alone, mean
[5] = 50 mg oral single dose alone, mean
[6] = 75 mg oral single dose alone, mean
[7] = 100 mg oral single dose alone, mean
[8] = oral, 5 mg solution + RTV 100 mg, mean
[9] = oral, 5 mg, 5 mg alone (no RTV), mean
[10] = oral, 12.5 mg solution + RTV 100 mg, mean
[11] = oral, 12.5 mg, 12.5 mg alone (no RTV), mean (Table 1)
[12] = po, 12.5 mg, 12.5 mg oral single dose alone, mean (Table 2)
[13] = po, 25 mg, 25 mg oral single dose alone, mean
[14] = po, 50 mg, 50 mg oral single dose alone, mean
[15] = po, 75 mg, 75 mg oral single dose alone, mean
[16] = po, 100 mg, 100 mg oral single dose alone, mean
[17] = with ritonavir 100 mg versus alone

Sequence of CYP3A4 (P08684 whole entry): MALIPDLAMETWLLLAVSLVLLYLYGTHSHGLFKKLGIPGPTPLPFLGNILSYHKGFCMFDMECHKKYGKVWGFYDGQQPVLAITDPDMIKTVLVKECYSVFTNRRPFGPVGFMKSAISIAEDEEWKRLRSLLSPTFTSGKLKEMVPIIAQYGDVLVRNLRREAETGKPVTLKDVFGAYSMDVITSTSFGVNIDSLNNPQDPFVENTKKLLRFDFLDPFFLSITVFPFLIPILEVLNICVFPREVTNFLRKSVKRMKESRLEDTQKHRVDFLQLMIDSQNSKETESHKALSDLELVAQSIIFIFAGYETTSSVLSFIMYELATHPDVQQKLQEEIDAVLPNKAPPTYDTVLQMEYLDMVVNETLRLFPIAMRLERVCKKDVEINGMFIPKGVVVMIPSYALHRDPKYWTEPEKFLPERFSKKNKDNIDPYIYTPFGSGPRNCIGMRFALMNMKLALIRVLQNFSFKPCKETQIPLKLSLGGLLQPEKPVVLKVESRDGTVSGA

metabolism by the cytochromes P450, especially the CYP3A4 isoform [1]: surprisingly rapid metabolism
% Renally eliminated as unchanged drug [2, 3]: 0.21%
CL/F [2, 3]: 243495.99
% Renally eliminated as unchanged drug [2, 4]: 0.41%
CL/F [2, 4]: 200752.61
% Renally eliminated as unchanged drug [2, 5]: 0.48%
CL/F [2, 5]: 124815.56
% Renally eliminated as unchanged drug [2, 6]: 0.60%
CL/F [2, 6]: 263277.68
% Renally eliminated as unchanged drug [2, 7]: 0.81%
CL/F [2, 7]: 75634.54
AUC(0-t) ([2]; oral, 5 mg solution + RTV 100 mg (12 h before and co-administered), mean): 578 ng·h/mL
Cmax [2, 8]: 22.8 ng/mL
Tmax [2, 8]: 4 h
half-life ([2]; oral, 5 mg solution + RTV 100 mg, mean, read-out: half-life (converted)): 918 min
AUC(0-t) [2, 9]: 13.6 ng·h/mL
Cmax [2, 9]: 3.64 ng/mL
Tmax [2, 9]: 1.5 h
AUC(0-t) ([2]; oral, 12.5 mg solution + RTV 100 mg (12 h before and co-administered), mean): 1700 ng·h/mL
Cmax [2, 10]: 74.1 ng/mL
Tmax [2, 10]: 3.59 h
half-life ([2]; oral, 12.5 mg solution + RTV 100 mg, mean, read-out: half-life (converted)): 953 min
AUC(0-t) [2, 11]: 57.1 ng·h/mL
Cmax [2, 11]: 14.8 ng/mL
Tmax [2, 11]: 1 h
half-life ([2]; oral, 12.5 mg, 12.5 mg alone (no RTV), mean (Table 1), read-out: half-life (converted)): 246 min
half-life ([2]; oral, co-administration with ritonavir 100 mg, read-out: half-life upon co-administration with ritonavir (converted)): 900 min
half-life ([2]; oral, without ritonavir, single dose range of 1-100 mg, read-out: half-life without ritonavir (converted)): ~120 min
Cmax [2, 12]: 14.8 ng/mL
Tmax [2, 12]: 1 h
half-life ([2]; po, 12.5 mg, 12.5 mg oral single dose alone, mean (Table 2), read-out: Half-life (converted)): 246 min
Cmax [2, 13]: 41.6 ng/mL
Tmax [2, 13]: 0.83 h
half-life ([2]; po, 25 mg, 25 mg oral single dose alone, mean, read-out: Half-life (converted)): 206 min
Cmax [2, 14]: 164 ng/mL
Tmax [2, 14]: 0.67 h
half-life ([2]; po, 50 mg, 50 mg oral single dose alone, mean, read-out: Half-life (converted)): 150 min
Cmax [2, 15]: 348 ng/mL
Tmax [2, 15]: 0.67 h
half-life ([2]; po, 75 mg, 75 mg oral single dose alone, mean, read-out: Half-life (converted)): 133 min
Cmax [2, 16]: 937 ng/mL
Tmax [2, 16]: 0.55 h
half-life ([2]; po, 100 mg, 100 mg oral single dose alone, mean, read-out: Half-life (converted)): 112 min
AUC ([2]; 12.5 mg oral single dose alone, mean (Table 2)): 63.1 ng·h/mL
AUC [2, 4]: 139 ng·h/mL
AUC [2, 5]: 437 ng·h/mL
AUC [2, 6]: 817 ng·h/mL
AUC [2, 7]: 1390 ng·h/mL
increase of AUC (plasma concentrations as measured by area under the curve) in the presence of ritonavir [2, 17]: ~40 fold
increase of mean Cmax in the presence of ritonavir [2, 17]: 5-6 fold
Structure (SMILES): CCN1c2ncc(CCOc3cc[n+]([O-])c4ccccc34)cc2C(=O)N(C)c2cccnc21 [the compound of the formula I, 5,11-Dihydro-11-ethyl-5-methyl-8-{2-{(1-oxido-4-quinolinyl)oxy}ethyl}-6H-dipyrido[3,2-b:2′,3′-e] [1,4]diazepin-6-one]
